Columns and labels:
Ex-vivo porcine skin = assay: Skin moisturization: Corneometer hydration of treated ex-vivo porcine skin
Method: Skin moisturization was assessed in terms of hydration, measured using a Corneometer (Courage+Khazaka, Germany, model CM 825, consistent with the Sorption Desorption Test described in Bioengineering of the Skin:Water and the Stratum Corneum, by G. Borroni et al., Ed by P. Elsner et al., CBC Press, Chapter 18, 1995). Instrument readings typically vary from 5 to 120 units, with small numbers (˜6) typical for nails, higher numbers typical for dry skin (˜10-20), medium numbers typical for hydrated skin (˜40) and large numbers typical for skin immediately after application of water-based humectants (above 100).
Ex-vivo porcine skin (area 1.5 cm×1.5 cm) was treated with 0.1 ml of the compositions identified in Table 1 as well as a 10% glycerol solution and deionized water as the control. Readings were taken before treatments as a baseline and at least 5 measurements were made at the same position at the time intervals shown in the table.
The relative hydration numbers were calculated as 100%*(Ct-C0)/C0, where C0 is the reading before the treatment, and Ct is the reading taken at the time t after treatment.

stratum corneum = assay: Hydration of stratum corneum: water uptake in sorption-desorption cycle (Dynamic Water Sorption Analyzer); details: 0.12 mL applied
Method: The hydration of the stratum corneum was estimated from hysteresis observed during the sorption-desorption cycle. Disks of stratum corneum (6 mm in diameter) were treated with 0.06 mL aminopeptide mixture, glycerol or water at both sides and dried. The samples were then placed in a Dynamic Water Sorption Analyzer and with controlled humidity. When the humidity was increased in small steps (Delta RH=10%) water uptake was measured after 3 hours equilibration for each step. Water uptake is defined as a mass of water per the dry mass of stratum corneum. Table 3 depicts the values of water uptake for sorption and desorption for stratum corneum treated with aminopeptide mixture consistent with this invention (Sample 3), glycerol and stratum corneum treated with deionized water.

[1] = Glass transition temperature by differential scanning calorimetry; type: physicochemical
Method: Glass transition temperatures were measured using differential scanning calorimetry (DSC Q1000, TA Instruments) at a heating rate of 10 K/min from −80 to +40° C. Glass transition temperatures were determined using TA instrument software (TA Advantage) from the middle of the heat capacity curve. The compositions comprising aminopeptide mixtures consistent with this invention were assessed against glycerol and other compositions with amino acids. Water concentration means the water concentration of the composition at the time the glass transition temperature was obtained. Water was evaporated from contained compositions by storing the same at room temperature at a relative humidity of about 33%.

For `OCC(O)CO` [Glycerol (10%), glycerol], the “Relative Hydration” value (Ex-vivo porcine skin; 10 minutes after treatment with 0.1 ml) was 23%, the “Relative Hydration” value (Ex-vivo porcine skin; 30 minutes after treatment with 0.1 ml) was 11% and the “Relative Hydration” value (Ex-vivo porcine skin; 60 minutes after treatment with 0.1 ml) was 10%. The “change in hydration with respect to the initial hydration number” value (Ex-vivo porcine skin; after 10, 30, and 60 minutes of application to model skin, in words) was “lower”, the “Water uptake, desorption” value (stratum corneum; relative humidity 20.8 %) was 87.3 mg/g and the “Water uptake, sorption” value (stratum corneum; relative humidity 20.8 %) was 122.22 mg/g. For the same molecule, the “water uptake difference (desorption-sorption)” value (“water uptake difference” for short) (stratum corneum; relative humidity 20.8 %) was 34.92 mg/g, the “Water uptake, desorption” value (stratum corneum; relative humidity 31 %) was 135.34 mg/g and the “Water uptake, sorption” value (stratum corneum; relative humidity 31 %) was 161.38 mg/g. The “water uptake difference” value (stratum corneum; relative humidity 31 %) was -26.04 mg/g, the “Water uptake, desorption” value (stratum corneum; relative humidity 41 %) was 192.06 mg/g and the “Water uptake, sorption” value (stratum corneum; relative humidity 41 %) was 209.84 mg/g. For the same molecule, the “water uptake difference” value (stratum corneum; relative humidity 41 %) was -17.78 mg/g, the “Water uptake, desorption” value (stratum corneum; relative humidity 51 %) was 261.90 mg/g and the “Water uptake, sorption” value (stratum corneum; relative humidity 51 %) was 275.13 mg/g. For the same molecule, the “water uptake difference” value (stratum corneum; relative humidity 51 %) was -13.23 mg/g, the “Water uptake, desorption” value (stratum corneum; relative humidity 60.2 %) was 366.67 mg/g and the “Water uptake, sorption” value (stratum corneum; relative humidity 60.2 %) was 366.67 mg/g. For the same molecule, the “water uptake difference” value (stratum corneum; relative humidity 60.2 %) was 0 mg/g, the “Water uptake, desorption” value (stratum corneum; relative humidity 70.35 %) was 524.34 mg/g and the “Water uptake, sorption” value (stratum corneum; relative humidity 70.35 %) was 524.34 mg/g. For the same molecule, the “water uptake difference” value (stratum corneum; relative humidity 70.35 %) was 0 mg/g, the Glass transition temperature ([1]; water concentration 0 % in composition at reading) was −83 °C and the Glass transition temperature ([1]; water concentration 40 % in composition at reading) was −108 °C.
